Reference: ChEMBL document CHEMBL1147409, “3-(4-Aminobutyn-1-yl)pyridines: binding at alpha 4 beta 2 nicotinic cholinergic receptors” (Bioorg Med Chem Lett, 2004)

What was measured:
[1] = biological target: Neuronal acetylcholine receptor alpha4/beta2 (Rattus norvegicus); assay: Binding affinity towards nicotinic acetylcholine receptor alpha4-beta2 from rat brain homogenates
[2] = biological target: Neuronal acetylcholine receptor; alpha4/beta2 (Homo sapiens, UniProt P17787+P43681); assay: Binding affinity towards nicotinic acetylcholine receptor alpha4-beta2; assay type: protein-complex assay
Chain of Neuronal acetylcholine receptor; alpha4/beta2 (P17787 whole entry): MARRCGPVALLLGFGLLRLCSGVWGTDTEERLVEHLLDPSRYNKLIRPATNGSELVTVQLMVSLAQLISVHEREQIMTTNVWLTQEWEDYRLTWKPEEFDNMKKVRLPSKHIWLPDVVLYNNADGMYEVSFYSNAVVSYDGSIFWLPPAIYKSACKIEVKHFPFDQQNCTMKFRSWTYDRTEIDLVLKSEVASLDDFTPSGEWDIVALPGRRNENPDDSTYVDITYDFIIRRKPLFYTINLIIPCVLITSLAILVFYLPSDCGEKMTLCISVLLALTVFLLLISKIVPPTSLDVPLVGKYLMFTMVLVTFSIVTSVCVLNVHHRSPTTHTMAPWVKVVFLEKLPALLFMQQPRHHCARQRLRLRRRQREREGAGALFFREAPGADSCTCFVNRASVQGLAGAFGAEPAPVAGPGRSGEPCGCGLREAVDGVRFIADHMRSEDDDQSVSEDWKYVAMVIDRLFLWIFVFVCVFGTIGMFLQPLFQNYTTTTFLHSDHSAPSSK
Chain of Neuronal acetylcholine receptor; alpha4/beta2 (P43681 whole entry): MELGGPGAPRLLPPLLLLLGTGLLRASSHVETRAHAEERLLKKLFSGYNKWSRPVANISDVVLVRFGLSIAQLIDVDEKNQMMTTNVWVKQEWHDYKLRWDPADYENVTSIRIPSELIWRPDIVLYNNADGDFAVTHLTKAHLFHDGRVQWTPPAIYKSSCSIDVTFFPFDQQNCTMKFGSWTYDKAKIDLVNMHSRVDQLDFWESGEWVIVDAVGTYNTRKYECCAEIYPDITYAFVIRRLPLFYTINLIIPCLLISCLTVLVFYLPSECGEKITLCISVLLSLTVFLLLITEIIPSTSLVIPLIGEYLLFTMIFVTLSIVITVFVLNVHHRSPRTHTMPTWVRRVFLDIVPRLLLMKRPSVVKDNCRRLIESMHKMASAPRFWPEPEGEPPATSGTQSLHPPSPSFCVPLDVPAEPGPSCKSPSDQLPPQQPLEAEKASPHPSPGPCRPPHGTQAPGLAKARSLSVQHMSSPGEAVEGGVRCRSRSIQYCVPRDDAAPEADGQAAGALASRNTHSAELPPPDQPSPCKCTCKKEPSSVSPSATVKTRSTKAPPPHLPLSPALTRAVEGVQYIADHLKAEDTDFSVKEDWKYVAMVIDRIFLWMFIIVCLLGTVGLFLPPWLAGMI

Row | SMILES | Ki [1] | Ki [2]
1 | CNCCOc1cccnc1 | 35 nM | 
2 | CNCCC#Cc1ccc(OC)nc1 | > 10000 nM | 
3 | c1cncc(CN2CCCC2)c1 | 30 nM | 
4 | CNCC#Cc1cccnc1 |  | 2290 nM
5 | CNC/C=C/c1cccnc1 |  | ~6000 nM
6 | CN(C)CCC#Cc1cccnc1 | 510 nM | 
7 | C[N+](C)(C)CCC#Cc1cccnc1 | 470 nM | 
8 | C(#Cc1cccnc1)CCN1CCCC1 | > 10000 nM | 
9 | c1cncc(OCCN2CCCC2)c1 | 212 nM | 
10 | CN(C)Cc1cccnc1 | 540 nM | 
11 | C[N+](C)(C)CCOc1cccnc1 | 0.5 nM | 
12 | CNCCC#Cc1ccc(Cl)nc1 | 154 nM | 
13 | C[N+](C)(C)Cc1cccnc1 | 110 nM | 
14 | CNCc1cccnc1 | > 10000 nM | 
15 | CCN(C)Cc1cccnc1 | 28 nM | 
16 | CN(C)CCOc1cccnc1 | 21 nM | 
17 | CNCC/C=C/c1cccnc1 [RIVANICLINE] |  | 25 nM
